Results taken from the supplement of paper PMC10307832.

How the values were obtained:
Assay in all cases: relative viability (nuclei count vs DMSO), 5 days (fraction); higher = more cells survive
SGI-1776 + Pictilisib = compound: CN1CCC(CNc2ccc3ncc(-c4cccc(OC(F)(F)F)c4)n3n2)CC1 [SGI-1776] + CS(=O)(=O)N1CCN(Cc2cc3nc(-c4cccc5[nH]ncc45)nc(N4CCOCC4)c3s2)CC1 [Pictilisib] (partner 1 µM)
Summary of the method: (§1)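 For relative viability, nuclei counts in treated wells were divided by those in vehicle wells. Lung cancer cell lines had been pin-tool dosed in 1536-well plates the day after seeding and cultured for 5 days, then fixed and stained in one step (final 0.05% Triton X-100, 1% formaldehyde, 1 ug/ml Hoechst) and imaged at 4×. Doses were one drug alone or a fixed anchor-drug dose plus five library-drug doses (not always all listed) in √10 steps, and values are duplicate-plate medians.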

[1] = compound: C1COCCN1C2=NC(=NC3=C2OC4=C3C=CC=N4)C5=CC(=CC=C5)NC(=O)C6=CN=C(C=C6)N + Nc1ncn([C@H]2C[C@H](O)[C@@H](CO)O2)c(=O)n1 [Decitabine] (partner 2 µM)
Summary of the method: as §1

[2] = compound: C1COCCN1C2=NC(=NC3=C2OC4=C3C=CC=N4)C5=CC(=CC=C5)NC(=O)C6=CN=C(C=C6)N + CS(=O)(=O)N1CCN(Cc2cc3nc(-c4cccc5[nH]ncc45)nc(N4CCOCC4)c3s2)CC1 [Pictilisib] (partner 1 µM)
Summary of the method: as §1

Entinostat + Pictilisib = compound: Nc1ccccc1NC(=O)c1ccc(CNC(=O)OCc2cccnc2)cc1 [Entinostat] + CS(=O)(=O)N1CCN(Cc2cc3nc(-c4cccc5[nH]ncc45)nc(N4CCOCC4)c3s2)CC1 [Pictilisib] (partner 1 µM)
Summary of the method: as §1

Cell Line	relative viability (SGI-1776 + Pictilisib; first compound 0.08 µM)	relative viability (SGI-1776 + Pictilisib; first compound 0.8 µM)	relative viability (SGI-1776 + Pictilisib; first compound 2.53 µM)	relative viability (SGI-1776 + Pictilisib; first compound 8 µM)	relative viability ([1]; first compound 0.02 µM)	relative viability ([1]; first compound 0.06325 µM)	relative viability ([1]; first compound 0.2 µM)	relative viability ([1]; first compound 0.6325 µM)	relative viability ([1]; first compound 2 µM)	relative viability ([2]; first compound 0.02 µM)	relative viability ([2]; first compound 0.06325 µM)	relative viability ([2]; first compound 0.2 µM)	relative viability ([2]; first compound 0.6325 µM)	relative viability ([2]; first compound 2 µM)	relative viability (Entinostat + Pictilisib; first compound 0.02 µM)	relative viability (Entinostat + Pictilisib; first compound 0.06325 µM)	relative viability (Entinostat + Pictilisib; first compound 0.2 µM)	relative viability (Entinostat + Pictilisib; first compound 0.6325 µM)	relative viability (Entinostat + Pictilisib; first compound 2 µM)
NCI-H2170	0.297	0.281	0.284	0.238	0.493	0.488	0.48	0.551	0.506	0.328	0.316	0.299	0.299	0.304	0.38	0.375	0.325	0.235	0.167
HCC-366	0.158	0.192	0.137	0.0802	0.296	0.395	0.343	0.373	0.223	0.0246	0.144	0.107	0.107	0.204	0.163	0.232	0.168	0.194	0.082
NCI-H2405	0.478	0.507	0.309	0.257	0.671	0.674	0.763	0.767	0.694	0.431	0.45	0.414	0.428	0.423	0.483	0.678	0.545	0.393	0.222
COR-L 105	0.409	0.389	0.342	0.308	0.604	0.683	0.61	0.621	0.572	0.433	0.351	0.389	0.344	0.33	0.414	0.425	0.38	0.346	0.262
201T	0.7	0.718	0.687	0.6	0.864	0.856	0.872	0.862	0.785	0.661	0.66	0.654	0.735	0.696	0.708	0.662	0.625	0.532	0.467
NCI-H2228	0.446	0.38	0.286	0.177	–	–	–	–	–	0.486	0.346	0.38	0.234	0.256	0.289	0.285	0.292	0.253	0.161
LCLC-103H	0.752	0.608	0.554	0.45	0.724	0.723	0.731	0.733	0.527	0.533	0.647	0.555	0.678	0.551	0.611	0.603	0.636	0.452	0.479
NCI-H2087	0.953	0.974	0.826	0.899	0.267	0.281	0.255	0.332	0.211	0.881	0.848	0.876	0.807	0.642	0.741	0.822	0.826	0.353	0.315
NCI-H358	0.37	0.375	0.334	0.253	0.221	0.212	0.211	0.247	0.182	0.287	0.302	0.288	0.328	0.296	0.332	0.327	0.369	0.278	0.187
H3255	0.479	0.451	0.456	0.392	0.577	0.575	0.599	0.798	0.559	0.417	0.495	0.458	0.505	0.432	0.475	0.395	0.301	0.202	0.168
NCI-H23	0.558	0.448	0.449	0.387	0.285	0.371	0.288	0.378	0.277	0.473	0.504	0.409	0.432	0.32	0.496	0.576	0.499	0.404	0.296
CAL-12T	0.559	0.592	0.341	0.385	–	–	–	–	–	0.464	0.479	0.391	0.356	0.455	0.537	0.546	0.544	0.303	0.323
A-427	0.704	0.694	0.824	0.657	0.588	0.512	0.619	0.679	0.579	0.696	0.621	0.675	0.653	0.507	0.67	0.837	0.65	0.757	0.589
HARA	0.445	0.373	0.306	0.243	0.529	0.569	0.64	0.576	0.412	0.273	0.319	0.329	0.326	0.291	0.428	0.533	0.442	0.368	0.219
NCI-H1793	0.301	0.256	0.399	0.314	0.445	0.514	0.457	0.602	0.407	0.312	0.279	0.398	0.408	0.361	0.317	0.333	0.285	0.235	0.219
NCI-H2023	0.23	0.23	0.202	0.147	0.248	0.246	0.23	0.325	0.191	0.273	0.211	0.216	0.23	0.193	0.173	0.182	0.146	0.126	0.0933
ABC-1	0.675	0.666	0.745	0.66	0.929	1.07	0.98	1.23	1.08	0.711	0.717	0.773	0.768	0.609	0.668	1.07	0.7	0.452	0.279
LC-2-ad	0.428	0.522	0.544	0.254	0.881	0.788	0.92	0.835	0.618	0.441	0.51	0.526	0.443	0.487	0.44	0.5	0.431	0.126	0.124
NCI-H441	0.399	0.62	0.564	0.299	0.23	0.298	0.27	0.326	0.248	0.564	0.585	0.427	0.447	0.345	0.369	0.429	0.402	0.208	0.172

Cell Line	relative viability (SGI-1776 + Pictilisib; first compound 0.08 µM)	relative viability (SGI-1776 + Pictilisib; first compound 0.8 µM)	relative viability (SGI-1776 + Pictilisib; first compound 2.53 µM)	relative viability (SGI-1776 + Pictilisib; first compound 8 µM)	relative viability ([1]; first compound 0.02 µM)	relative viability ([1]; first compound 0.06325 µM)	relative viability ([1]; first compound 0.2 µM)	relative viability ([1]; first compound 0.6325 µM)	relative viability ([1]; first compound 2 µM)	relative viability ([2]; first compound 0.02 µM)	relative viability ([2]; first compound 0.06325 µM)	relative viability ([2]; first compound 0.2 µM)	relative viability ([2]; first compound 0.6325 µM)	relative viability ([2]; first compound 2 µM)	relative viability (Entinostat + Pictilisib; first compound 0.02 µM)	relative viability (Entinostat + Pictilisib; first compound 0.06325 µM)	relative viability (Entinostat + Pictilisib; first compound 0.2 µM)	relative viability (Entinostat + Pictilisib; first compound 0.6325 µM)	relative viability (Entinostat + Pictilisib; first compound 2 µM)
NCI-H1915	0.934	0.979	0.964	0.838	0.255	0.261	0.26	0.559	0.335	0.924	0.96	0.927	0.898	0.845	0.899	0.94	0.844	0.328	0.218
NCI-H1299	0.821	0.832	0.596	0.505	–	–	–	–	–	0.866	0.943	0.808	0.791	0.442	0.793	0.848	0.63	0.532	0.394
HCC-827	1.02	1.21	1.09	0.877	0.343	0.298	0.348	0.287	0.302	0.99	1.1	1.12	0.986	0.935	1.02	0.774	0.683	0.754	0.478
EMC-BAC-2	0.539	0.555	0.567	0.485	0.96	1.06	0.947	0.953	0.779	0.495	0.526	0.516	0.523	0.465	0.579	0.595	0.628	0.352	0.289
NCI-H596	0.43	0.383	0.365	0.298	0.951	0.971	1.15	–	1.07	0.356	0.386	0.374	0.315	0.407	0.401	0.4	0.372	0.333	0.348
NCI-H1792	0.282	0.264	0.284	0.231	0.688	0.66	0.519	0.531	0.213	0.26	0.27	0.258	0.17	0.288	0.245	0.239	0.164	0.0977	0.0839
NCI-H2009	0.764	0.93	0.682	0.474	0.373	0.367	0.415	0.456	0.395	0.8	0.819	0.804	0.804	0.603	0.811	0.941	0.882	0.73	0.546
NCI-H2347	0.614	0.941	0.734	0.614	0.603	0.657	0.651	0.755	0.575	0.735	0.703	0.601	0.619	0.497	0.494	0.321	0.333	0.216	0.345
SW 900	–	–	–	–	0.402	0.42	0.448	0.648	0.558	–	–	–	–	–	–	–	–	–	–
NCI-H1563	0.707	0.588	0.583	0.467	–	–	–	–	–	0.632	0.618	0.622	0.626	0.604	0.721	0.639	0.617	0.684	0.646
SK-MES-1	0.364	0.353	0.33	0.278	0.407	0.491	0.408	0.643	0.356	0.31	0.407	0.369	0.353	0.317	0.356	0.465	0.506	0.376	0.277
NCI-H3122	0.594	0.717	0.632	0.515	0.391	0.354	0.366	0.487	0.322	0.621	0.588	0.531	0.515	0.451	0.648	0.663	0.678	0.441	0.298
Calu-6	0.974	0.911	0.808	0.482	–	–	–	–	–	1.03	0.932	0.87	0.888	0.472	0.814	0.934	0.864	0.615	0.383
EBC-1	0.436	0.374	0.299	0.15	–	–	–	–	–	0.409	0.432	0.307	0.295	0.293	0.313	0.363	0.193	0.12	0.0976
NCI-H2342	–	–	–	–	0.724	0.727	0.751	0.743	0.693	–	–	–	–	–	–	–	–	–	–
NCI-H1703	0.242	0.22	0.251	0.181	–	–	–	–	–	0.23	0.255	0.239	0.251	0.232	0.263	0.274	0.314	0.384	0.304
IA-LM	0.281	0.328	0.389	0.242	–	–	–	–	–	–	0.301	0.319	0.353	0.182	0.391	0.43	0.508	0.311	0.133
NCI-H1648	–	–	–	–	0.41	0.481	0.456	0.509	0.52	–	–	–	–	–	–	–	–	–	–
NCI-H522	–	–	–	–	0.633	0.798	0.694	0.563	0.645	–	–	–	–	–	–	–	–	–	–
